Laboratory results taken from article PMC11855827, “High-Throughput Screening of Five Compound Libraries for Anthelmintic Activity and Toxicity Leads to the Discovery of Two Flavonoid Compounds” (International Journal of Molecular Sciences, 2025).
Values joined by “and” are separate entries in the source; they are usually repeats but may differ in a detail not shown here. Equal entries are not always repeated. *1 amine or outer side, *2 acyl side, *3 side chain or, on linkers, in order; H or OH if unused. Where a SMILES comes first, the peptide text is derived from it. Bridges are numbered along the chain shown (N, C = ends). [ ]: non-standard residue; d: D form. The star is where a group is joined. Orn(4R-OH,5R-OH) = O=C([C@H](C[C@@H](O)[C@@H](O)N[*:3])N[*:1])[*:2]; Tetradecanoyl(10R,12S-Me2) = CC[C@H](C)C[C@H](C)CCCCCCCCC(=O)*; hTyr(3S-OH,4S-OH) = N[C@H](C(=O)O)[C@H](O)[C@@H](O)c1ccc(O)cc1; Gln(3R-OH) = NC(=O)C[C@@H](O)[C@H](N)C(=O)O; Pro(3S-OH) = O=C(O)[C@H]1NCC[C@@H]1O; Hyp = O=C(O)[C@@H]1C[C@@H](O)CN1

System: C. elegans
Conditions: Table S2, C. elegans SS assay, 110 μM, averages of 4 data points

Row | Compound | Percentage of motility inhibition 0 h | Percentage of motility inhibition 24 h
1 | C/C1=C\CC/C(C)=C/CC(C)(C)/C=C/C1 [α-Humulene] | 11% | 55%
2 | Liensinine (Diperchlorate) | 0% | 0%
3 | CCN1C[C@]2(C)CC[C@H](OC)C34C5C[C@@H]6CC[C@@](O)(C5C(=O)O6)C(C13)[C@@H](OC(=O)c1ccccc1)[C@@H]42 [6‐Benzoylheteratisine] | 16% | 23%
4 | C[C@H](CC[C@@H](O[C@@H]1O[C@H](CO[C@@H]2O[C@H](CO)[C@@H](O)[C@H](O)[C@H]2O)[C@@H](O)[C@H](O)[C@H]1O[C@@H]1O[C@H](CO)[C@@H](O)[C@H](O)[C@H]1O)C(C)(C)O)[C@H]1CC[C@@]2(C)[C@@H]3CC=C4[C@@H](CC[C@H](O[C@@H]5O[C@H](CO)[C@@H](O[C@@H]6O[C@H](CO)[C@@H](O)[C@H](O)[C@H]6O)[C@H](O)[C@H]5O)C4(C)C)[C@]3(C)[C@H](O)C[C@]12C [Isomogroside V] | 28% | 21%
5 | C/C=C/C=C/C=C/CC/C=C/C(=O)NCC(C)(C)O [Hydroxy‐β‐sanshool] | 46% | 10%
6 | CC1(C)C[C@H]2C3=CC[C@@H]4[C@@]5(C)CC[C@H](O)[C@@](C)(CO)[C@@H]5CC[C@@]4(C)[C@]3(C)C[C@H](O)[C@@]2(CO)[C@@H](O)[C@@H]1O [Gymnemagenin] | 0% | 52%
7 | O=C(CO)[C@@H](O)[C@H](O)[C@H](O)CO [D-Fructose] | – | 15%
8 | CN(C)CCn1nnnc1SCC1=C(C(=O)O)N2C(=O)[C@@H](NC(=O)Cc3csc(N)n3)[C@H]2SC1.Cl.Cl [Cefotiam (hydrochloride)] | 66% | 37%
9 | CC(C)=CCC[C@](C)(O[C@@H]1O[C@H](CO[C@@H]2OC[C@@H](O)[C@H](O)[C@H]2O)[C@@H](O)[C@H](O)[C@H]1O)[C@H]1CC[C@]2(C)[C@@H]1[C@H](O)C[C@@H]1[C@@]3(C)CC[C@H](O)C(C)(C)[C@@H]3CC[C@]12C [Gypenoside XIII] | 7% | 13%
10 | Cc1c(O)c(C)c2c(c1O)C(=O)[C@H](Cc1ccc3c(c1)OCO3)CO2 [Methylophiopogonanone A] | 21% | 0%
11 | Cn1c(=O)c2c(c3ccccc31)OC(C)(C)C=C2 [N‐Methylflindersine] | 0% | 1%
12 | CC(C)OC(=O)[C@H](C)N[P@](=O)(CO[C@H](C)Cn1cnc2c(N)ncnc21)Oc1ccccc1.CC(C)OC(=O)[C@H](C)N[P@](=O)(CO[C@H](C)Cn1cnc2c(N)ncnc21)Oc1ccccc1.O=C(O)/C=C/C(=O)O [GS‐7340 (hemifumarate)] | 21% | 0%
13 | CCCCCCCCCCCCCCCCCCCCCCO [1-Docosanol] | 7% | 8%
14 | CC(=O)Oc1c(C)c(C)c2c(c1C)CCC(C)(CCC[C@H](C)CCC[C@H](C)CCCC(C)C)O2 (stereo partly drawn) [D-α-Tocopherol acetate] | 7% | 22%
15 | CC1(C)[C@@H](O[C@@H]2O[C@H](C(=O)O)[C@@H](O)[C@H](O)[C@H]2O)CC[C@]2(C)[C@H]3C(=O)C=C4[C@@H]5C[C@@](C)(C(=O)O)CC[C@]5(C)CC[C@@]4(C)[C@]3(C)CC[C@@H]12 [Glycyrrhetic acid 3-O-β-D-glucuronide] | 2% | 22%
16 | NCCc1c[nH]cn1.O=P(O)(O)O.O=P(O)(O)O [Histamine (phosphate)] | 6% and 9% | –
17 | CC[C@H]1OC(=O)C[C@@H](O)[C@H](C)[C@@H](O[C@@H]2O[C@H](C)[C@@H](O)[C@H](N(C)C)[C@H]2O)[C@@H](CCN2C[C@H](C)C[C@H](C)C2)C[C@@H](C)C(=O)/C=C/C(C)=C/[C@@H]1CO[C@@H]1O[C@H](C)[C@@H](O)[C@@H](OC)[C@H]1OC.O=P(O)(O)O [Tilmicosin (phosphate)] | 6% | 10%
18 | O=C(CC(O)(CC(=O)OCc1ccc(OC2OC(CO)C(O)C(O)C2O)cc1)C(=O)OCc1ccc(OC2OC(CO)C(O)C(O)C2O)cc1)OCc1ccc(OC2OC(CO)C(O)C(O)C2O)cc1 (stereo not shown) [Parishin] | 0% | 12%
19 | Xanthopterin (hydrate) | 5% | 0%
20 | NC(=O)c1cc([N+](=O)[O-])cc([N+](=O)[O-])c1 [Nitromide] | 25% | 12%
21 | O=C([O-])CC(O)(CC(=O)[O-])C(=O)[O-].[Na+].[Na+].[Na+] [Citric acid (trisodium)] | 8% | 2%

Row | Compound | Percentage of motility inhibition 0 h | Percentage of motility inhibition 24 h
22 | C[C@@H]1O[C@@H](OC[C@H]2O[C@@H](Oc3c(-c4ccc(O)c(O)c4)oc4cc(O)cc(O)c4c3=O)[C@H](O)[C@@H](O)[C@@H]2O)[C@H](O)[C@H](O)[C@H]1O [Ruti n] | 33% | 10%
23 | CC1(C)S[C@@H]2[C@H](NC(=O)[C@H](N)c3ccc(O)cc3)C(=O)N2[C@H]1C(=O)O.O.O.O [Amoxicillin (trihydrate)] | 27% | 0%
24 | CC(C)(O)[C@@H]1CC[C@](C)([C@H]2[C@@H](O)C[C@@]3(C)[C@@H]4C[C@H](O)[C@H]5C(C)(C)[C@@H](O[C@@H]6OC[C@@H](O)[C@H](O)[C@H]6O[C@@H]6O[C@H](CO)[C@@H](O)[C@H](O)[C@H]6O)CC[C@@]56C[C@@]46CC[C@]23C)O1 [Astragaloside III] | 0% | 35%
25 | COc1cccc2c1cc([N+](=O)[O-])c1c(C(=O)O)cc3c(c12)OCO3 [Aristolochic acid A] | – | 22% and 11%
26 | C[C@H](CCC(=O)NCCS(=O)(=O)[O-])[C@H]1CC[C@H]2[C@@H]3CC[C@@H]4C[C@H](O)CC[C@]4(C)[C@H]3C[C@H](O)[C@]12C.[Na+] [Taurodeoxycholic acid (sodium hydrate)] | 8% | 3%
27 | CC(C)[C@]12O[C@H]1[C@@H]1O[C@@]13[C@@]1(C)CCC4=C(COC4=O)[C@@H]1C[C@@H]1O[C@@]13C2=O [Triptonide] | 7% | 13%
28 | O=C1N[C@@H](Cc2ccc(O)cc2)C(=O)N2CCC[C@@H]12 [Maculosin] | 0% | 0%
29 | C[C@@]1(O)[C@H](O)[C@@H](CO)O[C@H]1n1ccc(N)nc1=O [NM107] | 37% | 27%
30 | CC(=O)O[C@H]1CC[C@]2(C)[C@H]3CC=C4[C@@H]5[C@@H](C)[C@H](C)CC[C@]5(C(=O)O)CC[C@@]4(C)[C@]3(C)CC[C@H]2C1(C)C [Ursolic acid acetate] | 24% | 18%
31 | NCCC[C@H](N)C(=O)O [L-Ornithine] | 2% | 4%
32 | CC(C)(C)NCc1cc(Nc2ccnc3cc(Cl)ccc23)c2c(c1O)CCCC2.O=P(O)(O)O.O=P(O)(O)O [Naphthoquine (phosphate)] | 28% | 8%
33 | COC(=O)[C@@]1(C)CC[C@]2(C(=O)O)CC[C@]3(C)C(=CC[C@@H]4[C@@]5(C)C[C@H](O)[C@H](O[C@@H]6OC[C@@H](O[C@@H]7O[C@H](CO)[C@@H](O)[C@H](O)[C@H]7O)[C@H](O)[C@H]6O)[C@@](C)(CO)[C@@H]5CC[C@]43C)[C@@H]2C1 [Esculentoside A] | 17% | 3%
34 | C[N+](C)(C)CCO.[Cl-] [Choline (chloride)] | 51% | 17%
35 | CC[C@H](C)C[C@H](C)CCCCCCCCC(=O)N[C@H]1C[C@@H](O)[C@@H](O)NC(=O)[C@@H]2[C@@H](O)CCN2C(=O)[C@H]([C@H](O)CC(N)=O)NC(=O)[C@H]([C@H](O)[C@@H](O)c2ccc(O)cc2)NC(=O)[C@@H]2C[C@@H](O)CN2C(=O)[C@H]([C@@H](C)O)NC1=O [Pneumocandin B0] ({Tetradecanoyl(10R,12S-Me2)}-[Orn(4R-OH,5R-OH)]T[Hyp][hTyr(3S-OH,4S-OH)][Gln(3R-OH)][Pro(3S-OH)]; lactam 1-C) | 0% | 0%
36 | C1CNCCN1.O=C(O)CCCCC(=O)O [Piperazine adipate] | 10% | 13%
37 | C=C1[C@@H]2CC[C@H]3[C@]4(C)C[C@H](O[C@H]5O[C@@H](CO)[C@H](OS(=O)(=O)[O-])[C@@H](OS(=O)(=O)[O-])[C@@H]5OC(=O)CC(C)C)C[C@@](C(=O)[O-])(C(=O)O)[C@H]4CC[C@]3(C2)[C@H]1O.[K+].[K+].[K+] [Carboxyatractyloside (tripotassium)] | 23% | 23%
38 | C[C@]12C[C@@H](O)[C@@H]3C[C@@]1(O[C@@H]1O[C@H](CO)[C@@H](O)[C@H](O)[C@H]1O)[C@@]3(COC(=O)c1ccccc1)C(=O)O2 [Albiflorin] | 0% | 2%
39 | C[C@]1(O)C[C@@H](O)[C@@H]2C(C(=O)O)=CO[C@@H](O[C@@H]3O[C@H](CO)[C@@H](O)[C@H](O)[C@H]3O)[C@@H]21 [Shanziside] | 1% | 4%
40 | C=C[C@]1(C)C=C2CC[C@H]3[C@@](C)(CCC[C@@]3(C)C(=O)O)[C@@H]2CC1 [Continentalic acid] | 36% | 24%
41 | O=c1cc(-c2ccc(O)cc2)oc2c([C@@H]3O[C@H](CO)[C@@H](O)[C@H](O)[C@H]3O)c(O)c([C@@H]3OC[C@H](O)[C@H](O)[C@H]3O)c(O)c12 [Isoschaftoside] | 9% | 0%
